Measurements published in patent US11364203B2, “Process for forming active domains dispersed in a matrix” (Bend Research, Inc., priority 2014, dated 2022).
≈ marks a conversion by molar mass, not a printed value.

Key:
Solubility in water = assay type: physicochemical
Solubility in acetone = assay type: physicochemical; settings: acetone at 25° C.

solubility in water (in words) (Solubility in water; water): practically insoluble in water | solubility (Solubility in water; water at 25° C.): < 1 µg/mL | solubility in acetone (Solubility in acetone): 9000 µg/mL (≈ 18 mM)
Structure (SMILES): CCC(=O)O[C@]1(C(=O)SCF)[C@H](C)C[C@H]2[C@@H]3C[C@H](F)C4=CC(=O)C=C[C@]4(C)[C@@]3(F)[C@@H](O)C[C@@]21C [Fluticasone, (6S,8S,9R,10S,11S,13S,14S,16R,17R)-6,9-difluoro-17-(((fluoromethyl)thio)carbonyl)-11-hydroxy-10,13,16-trimethyl-3-oxo-6,7,8,9,10,11,12,13,14,15,16,17-dodecahydro-3H-cyclopenta[a]phenanthren-17-yl propionate]
